Organism: Rattus norvegicus
Assay: Open TG-GATES - Regimen: Single
Type: toxicity, organism-based, Sprague-Dawley
Parameters: regimen Single, gender Male, age 6 weeks
Details: in vivo, po, route gavage; for APTT / Bas / Eos / Fbg / Hb / Ht / Lym / MCH / MCHC / MCV / Mono / Neu / PT / Plat / RBC / Ret / WBC: tissue Blood; for KIDNEY_L / KIDNEY_R / KIDNEY_TOTAL: tissue Kidney; for LIVER: tissue Liver; for A/G / ALP / ALT / AST / BUN / CRE / Ca / Cl / DBIL / GLC / IP / K / LDH / Na / PL / RALB / TBIL / TC / TG / TP / gamma-GTP: tissue Plasma
[1] = 1000 mg/kg, 3 h, dose level Middle
[2] = 1000 mg/kg, 6 h, dose level Middle
[3] = 1000 mg/kg, 9 h, dose level Middle
[4] = 1000 mg/kg, 24 h, dose level Middle
[5] = 2000 mg/kg, 3 h, dose level High
[6] = 2000 mg/kg, 6 h, dose level High
[7] = 2000 mg/kg, 9 h, dose level High
[8] = 2000 mg/kg, 24 h, dose level High

CC(=O)[C@@]1(O)CC[C@H]2[C@@H]3C=C(Cl)C4=CC(=O)CC[C@]4(C)[C@H]3CC[C@@]21C [CHLORMADINONE]
TERMINAL_BW [1]: 226.2 g
APTT [1]: 23.3 s
Bas [1]: 0%
Eos [1]: 1%
Fbg [1]: 302 mg/dL
Hb [1]: 12.9 g/dL
Ht [1]: 40.2%
Lym [1]: 75%
MCH [1]: 21.2 pg
MCHC [1]: 32.1%
MCV [1]: 66.1 fL
Mono [1]: 2.4%
Neu [1]: 21.2%
PT [1]: 15.8 s
Plat [1]: 112.9 x10_4/uL
RBC [1]: 608.8 x10_4/ul
Ret [1]: 9.1%
WBC [1]: 72.4 x10_2/uL
KIDNEY_L [1]: 1 g
KIDNEY_R [1]: 1.1 g
KIDNEY_TOTAL [1]: 2.1 g
LIVER [1]: 10.9 g
A/G [1]: 1.3
ALP [1]: 1451.2 IU/L
ALT [1]: 38.8 IU/L
AST [1]: 74 IU/L
BUN [1]: 13.8 mg/dL
CRE [1]: 0.1 mg/dL
Ca [1]: 11.2 mg/dL
Cl [1]: 104.6 meq/L
DBIL [1]: 0 mg/dL
GLC [1]: 176.4 mg/dL
IP [1]: 8 mg/dL
K [1]: 4.3 meq/L
LDH [1]: 166.6 IU/L
Na [1]: 141.6 meq/L
PL [1]: 134.4 mg/dL
RALB [1]: 3.1 g/dL
TBIL [1]: 0.028 mg/dL
TC [1]: 74.4 mg/dL
TG [1]: 50 mg/dL
TP [1]: 5.5 g/dL
gamma-GTP [1]: 2 IU/L
TERMINAL_BW [2]: 221.4 g
APTT [2]: 23.3 s
Bas [2]: 0%
Eos [2]: 0.2%
Fbg [2]: 300.8 mg/dL
Hb [2]: 13 g/dL
Ht [2]: 40.1%
Lym [2]: 72.2%
MCH [2]: 19.8 pg
MCHC [2]: 32.5%
MCV [2]: 61.1 fL
Mono [2]: 1.6%
Neu [2]: 25.2%
PT [2]: 15.6 s
Plat [2]: 119.2 x10_4/uL
RBC [2]: 655.4 x10_4/ul
Ret [2]: 8.1%
WBC [2]: 56.2 x10_2/uL
KIDNEY_L [2]: 1 g
KIDNEY_R [2]: 1 g
KIDNEY_TOTAL [2]: 2 g
LIVER [2]: 10.3 g
A/G [2]: 1.2
ALP [2]: 1445.6 IU/L
ALT [2]: 43 IU/L
AST [2]: 73 IU/L
BUN [2]: 13 mg/dL
CRE [2]: 0.2 mg/dL
Ca [2]: 10.8 mg/dL
Cl [2]: 105.2 meq/L
DBIL [2]: 0.002 mg/dL
GLC [2]: 181.2 mg/dL
IP [2]: 10.2 mg/dL
K [2]: 4.6 meq/L
LDH [2]: 143.6 IU/L
Na [2]: 140.4 meq/L
PL [2]: 138.2 mg/dL
RALB [2]: 3.1 g/dL
TBIL [2]: 0.04 mg/dL
TC [2]: 81.6 mg/dL
TG [2]: 27.6 mg/dL
TP [2]: 5.6 g/dL
gamma-GTP [2]: 1.6 IU/L
TERMINAL_BW [3]: 211.4 g
APTT [3]: 23.8 s
Bas [3]: 0%
Eos [3]: 0.2%
Fbg [3]: 336.2 mg/dL
Hb [3]: 13.3 g/dL
Ht [3]: 41.7%
Lym [3]: 72.4%
MCH [3]: 20 pg
MCHC [3]: 32%
MCV [3]: 62.5 fL
Mono [3]: 1%
Neu [3]: 25.6%
PT [3]: 15.4 s
Plat [3]: 110.4 x10_4/uL
RBC [3]: 667.4 x10_4/ul
Ret [3]: 7.4%
WBC [3]: 39.5 x10_2/uL
KIDNEY_L [3]: 1 g
KIDNEY_R [3]: 1 g
KIDNEY_TOTAL [3]: 1.9 g
LIVER [3]: 10.5 g
A/G [3]: 1.2
ALP [3]: 1398.6 IU/L
ALT [3]: 40.2 IU/L
AST [3]: 74.6 IU/L
BUN [3]: 13 mg/dL
CRE [3]: 0.1 mg/dL
Ca [3]: 10.7 mg/dL
Cl [3]: 106.2 meq/L
DBIL [3]: 0.002 mg/dL
GLC [3]: 188 mg/dL
IP [3]: 9.1 mg/dL
K [3]: 4.3 meq/L
LDH [3]: 157.2 IU/L
Na [3]: 141.2 meq/L
PL [3]: 156.2 mg/dL
RALB [3]: 3.2 g/dL
TBIL [3]: 0.024 mg/dL
TC [3]: 84.4 mg/dL
TG [3]: 81.2 mg/dL
TP [3]: 5.7 g/dL
gamma-GTP [3]: 1.2 IU/L
TERMINAL_BW [4]: 231.1 g
APTT [4]: 24.4 s
Bas [4]: 0%
Eos [4]: 1%
Fbg [4]: 333.6 mg/dL
Hb [4]: 13.2 g/dL
Ht [4]: 40.6%
Lym [4]: 77.8%
MCH [4]: 20.5 pg
MCHC [4]: 32.6%
MCV [4]: 63 fL
Mono [4]: 2.2%
Neu [4]: 18.6%
PT [4]: 15.5 s
Plat [4]: 125.6 x10_4/uL
RBC [4]: 644.6 x10_4/ul
Ret [4]: 7.9%
WBC [4]: 130.2 x10_2/uL
KIDNEY_L [4]: 1 g
KIDNEY_R [4]: 1.1 g
KIDNEY_TOTAL [4]: 2.1 g
LIVER [4]: 12.1 g
A/G [4]: 1.2
ALP [4]: 1702.6 IU/L
ALT [4]: 45.8 IU/L
AST [4]: 70.8 IU/L
BUN [4]: 17.8 mg/dL
CRE [4]: 0.2 mg/dL
Ca [4]: 11.1 mg/dL
Cl [4]: 105.8 meq/L
DBIL [4]: 0 mg/dL
GLC [4]: 193.4 mg/dL
IP [4]: 7.8 mg/dL
K [4]: 4.5 meq/L
LDH [4]: 184.2 IU/L
Na [4]: 140.8 meq/L
PL [4]: 168 mg/dL
RALB [4]: 3.3 g/dL
TBIL [4]: 0 mg/dL
TC [4]: 77.2 mg/dL
TG [4]: 188.8 mg/dL
TP [4]: 5.9 g/dL
gamma-GTP [4]: 1.6 IU/L
TERMINAL_BW [5]: 222.1 g
APTT [5]: 22.6 s
Bas [5]: 0%
Eos [5]: 1%
Fbg [5]: 306 mg/dL
Hb [5]: 12.8 g/dL
Ht [5]: 39.5%
Lym [5]: 74.8%
MCH [5]: 20 pg
MCHC [5]: 32.4%
MCV [5]: 61.8 fL
Mono [5]: 2%
Neu [5]: 21.6%
PT [5]: 15.2 s
Plat [5]: 107.8 x10_4/uL
RBC [5]: 639.8 x10_4/ul
Ret [5]: 7.8%
WBC [5]: 55.6 x10_2/uL
KIDNEY_L [5]: 0.9 g
KIDNEY_R [5]: 1 g
KIDNEY_TOTAL [5]: 1.9 g
LIVER [5]: 10.1 g
A/G [5]: 1.2
ALP [5]: 1401.2 IU/L
ALT [5]: 45.6 IU/L
AST [5]: 81 IU/L
BUN [5]: 13.8 mg/dL
CRE [5]: 0.2 mg/dL
Ca [5]: 10.9 mg/dL
Cl [5]: 105.2 meq/L
DBIL [5]: 0.004 mg/dL
GLC [5]: 172.2 mg/dL
IP [5]: 8.9 mg/dL
K [5]: 4.2 meq/L
LDH [5]: 143.6 IU/L
Na [5]: 141.2 meq/L
PL [5]: 138 mg/dL
RALB [5]: 3 g/dL
TBIL [5]: 0.032 mg/dL
TC [5]: 73.6 mg/dL
TG [5]: 50.8 mg/dL
TP [5]: 5.5 g/dL
gamma-GTP [5]: 1.4 IU/L
TERMINAL_BW [6]: 216.3 g
APTT [6]: 23.1 s
Bas [6]: 0%
Eos [6]: 0.6%
Fbg [6]: 313.4 mg/dL
Hb [6]: 13.5 g/dL
Ht [6]: 41.5%
Lym [6]: 74%
MCH [6]: 20.8 pg
MCHC [6]: 32.6%
MCV [6]: 63.7 fL
Mono [6]: 1.6%
Neu [6]: 23.4%
PT [6]: 15.1 s
Plat [6]: 124.8 x10_4/uL
RBC [6]: 651.8 x10_4/ul
Ret [6]: 7.9%
WBC [6]: 64 x10_2/uL
KIDNEY_L [6]: 1 g
KIDNEY_R [6]: 1 g
KIDNEY_TOTAL [6]: 2 g
LIVER [6]: 10.3 g
A/G [6]: 1.2
ALP [6]: 1302 IU/L
ALT [6]: 40.4 IU/L
AST [6]: 72.8 IU/L
BUN [6]: 13 mg/dL
CRE [6]: 0.1 mg/dL
Ca [6]: 10.8 mg/dL
Cl [6]: 106.2 meq/L
DBIL [6]: 0.004 mg/dL
GLC [6]: 177.4 mg/dL
IP [6]: 9.6 mg/dL
K [6]: 4.8 meq/L
LDH [6]: 157 IU/L
Na [6]: 140 meq/L
PL [6]: 138 mg/dL
RALB [6]: 3.2 g/dL
TBIL [6]: 0.034 mg/dL
TC [6]: 77.2 mg/dL
TG [6]: 39.8 mg/dL
TP [6]: 5.7 g/dL
gamma-GTP [6]: 1.6 IU/L
TERMINAL_BW [7]: 215.8 g
APTT [7]: 24.7 s
Bas [7]: 0%
Eos [7]: 0%
Fbg [7]: 319.6 mg/dL
Hb [7]: 13 g/dL
Ht [7]: 40.7%
Lym [7]: 71.2%
MCH [7]: 20.2 pg
MCHC [7]: 31.9%
MCV [7]: 63.4 fL
Mono [7]: 1%
Neu [7]: 27.2%
PT [7]: 15.7 s
Plat [7]: 119.5 x10_4/uL
RBC [7]: 642 x10_4/ul
Ret [7]: 7.9%
WBC [7]: 51.3 x10_2/uL
KIDNEY_L [7]: 0.9 g
KIDNEY_R [7]: 1 g
KIDNEY_TOTAL [7]: 1.9 g
LIVER [7]: 9.8 g
A/G [7]: 1.3
ALP [7]: 1584 IU/L
ALT [7]: 39.4 IU/L
AST [7]: 78 IU/L
BUN [7]: 12.8 mg/dL
CRE [7]: 0.1 mg/dL
Ca [7]: 10.6 mg/dL
Cl [7]: 106.6 meq/L
DBIL [7]: 0 mg/dL
GLC [7]: 178 mg/dL
IP [7]: 9.4 mg/dL
K [7]: 4.5 meq/L
LDH [7]: 142 IU/L
Na [7]: 141 meq/L
PL [7]: 142.4 mg/dL
RALB [7]: 3.2 g/dL
TBIL [7]: 0.028 mg/dL
TC [7]: 73 mg/dL
TG [7]: 67.2 mg/dL
TP [7]: 5.7 g/dL
gamma-GTP [7]: 1.4 IU/L
TERMINAL_BW [8]: 229.8 g
APTT [8]: 25.3 s
Bas [8]: 0%
Eos [8]: 1%
Fbg [8]: 341.6 mg/dL
Hb [8]: 14 g/dL
Ht [8]: 42.6%
Lym [8]: 77.6%
MCH [8]: 20.4 pg
MCHC [8]: 32.8%
MCV [8]: 62 fL
Mono [8]: 2.6%
Neu [8]: 17.8%
PT [8]: 15.3 s
Plat [8]: 106.3 x10_4/uL
RBC [8]: 687 x10_4/ul
Ret [8]: 7.3%
WBC [8]: 130.3 x10_2/uL
KIDNEY_L [8]: 1 g
KIDNEY_R [8]: 1 g
KIDNEY_TOTAL [8]: 2 g
LIVER [8]: 11.8 g
A/G [8]: 1.2
ALP [8]: 1835.4 IU/L
ALT [8]: 51.2 IU/L
AST [8]: 75 IU/L
BUN [8]: 15.8 mg/dL
CRE [8]: 0.2 mg/dL
Ca [8]: 11.3 mg/dL
Cl [8]: 105.4 meq/L
DBIL [8]: 0 mg/dL
GLC [8]: 192.4 mg/dL
IP [8]: 7.8 mg/dL
K [8]: 4.7 meq/L
LDH [8]: 201 IU/L
Na [8]: 140.6 meq/L
PL [8]: 185.2 mg/dL
RALB [8]: 3.2 g/dL
TBIL [8]: 0.004 mg/dL
TC [8]: 82 mg/dL
TG [8]: 222 mg/dL
TP [8]: 5.8 g/dL
gamma-GTP [8]: 1.4 IU/L

Reference: ChEMBL document CHEMBL3885861, “Open TG-GATES”
